Assays:
[1] = system: RAW264.7; assay: Antiosteoclast activity in mouse RAW264.7 cells assessed as inhibition of RANKL-induced osteoclast differentiation at 20 uM after 5 days by TRAP assay; assay type: functional; details: RAW264.7, 120 h
[2] = system: RAW264.7; assay: Antiosteoclast activity in mouse RAW264.7 cells assessed as inhibition of RANKL-induced osteoclast differentiation at 2 uM after 5 days by TRAP assay; assay type: functional; details: RAW264.7, 120 h
[3] = Cytotoxicity against mouse RAW264.7 cells assessed as inhibition of cell viability at 20 uM after 24 hrs by MTT assay; assay type: cell-based; details: read-out: INH
[4] = system: RAW264.7; assay: cells; details: Mus musculus, RAW264.7, 120 h
Description: Antiosteoclast activity in mouse RAW264.7 cells assessed as inhibition of RANKL-induced osteoclast differentiation after 5 days by TRAP assay

[5] = Cytotoxicity against mouse RAW264.7 cells assessed as inhibition of cell viability at 5 uM after 24 hrs by MTT assay; assay type: cell-based; details: read-out: INH
[6] = Cytotoxicity against mouse RAW264.7 cells assessed as inhibition of cell viability at 10 uM after 24 hrs by MTT assay; assay type: cell-based; details: read-out: INH
[7] = Cytotoxicity against mouse RAW264.7 cells assessed as inhibition of cell viability at 2 uM after 24 hrs by MTT assay; assay type: cell-based; details: read-out: INH

| Structure (SMILES) | inhibition at 20 µM [1] [%] | inhibition at 2 µM [2] [%] | cytotoxicity at 24 h, 20 µM [3] [%] | IC50 [4] [nM] | cytotoxicity at 24 h, 5 µM [5] [%] | cytotoxicity at 24 h, 10 µM [6] [%] | cytotoxicity at 24 h, 2 µM [7] [%] |
| --- | --- | --- | --- | --- | --- | --- | --- |
| Cc1noc(C)c1S(=O)(=O)n1cc2c(n1)C(C)(C)[C@@H]1CC[C@]3(C)[C@H](CC=C4[C@@H]5CC(C)(C)CC[C@]5(C(=O)NC5CCN(Cc6ccccc6)CC5)CC[C@]43C)[C@@]1(C)C2 | 69.5 | 64 |  |  |  |  |  |
| CC1(C)CC[C@]2(C(=O)NCCCN3CCOCC3)CC[C@]3(C)C(=CC[C@@H]4[C@@]5(C)Cc6cn(S(=O)(=O)c7ccc(Cl)cc7)nc6C(C)(C)[C@@H]5CC[C@]43C)[C@@H]2C1 | 56.1 | 20.6 |  |  |  |  |  |
| CC1(C)CC[C@]2(C(=O)NCCN3CCCCC3)CC[C@]3(C)C(=CC[C@@H]4[C@@]5(C)Cc6cn(S(=O)(=O)c7ccc(Cl)cc7)nc6C(C)(C)[C@@H]5CC[C@]43C)[C@@H]2C1 | 100 | 0.9 |  |  |  |  |  |
| COc1ccc(S(=O)(=O)n2cc3c(n2)C(C)(C)[C@@H]2CC[C@]4(C)[C@H](CC=C5[C@@H]6CC(C)(C)CC[C@]6(C(=O)NCCN6CCCCC6)CC[C@]54C)[C@@]2(C)C3)cc1OC | 100 | 100 | 71.1 | 130 | 0 | 52.6 | 0 |
| CC1(C)CC[C@]2(C(=O)NCCN3CCCCC3)CC[C@]3(C)C(=CC[C@@H]4[C@@]5(C)Cc6cn(S(=O)(=O)c7ccc(C(F)(F)F)cc7)nc6C(C)(C)[C@@H]5CC[C@]43C)[C@@H]2C1 | 100 | 100 |  | 68 |  |  |  |
| CC1(C)CC[C@]2(C(=O)NC3CCN(Cc4ccccc4)CC3)CC[C@]3(C)C(=CC[C@@H]4[C@@]5(C)Cc6cn(S(=O)(=O)c7ccc(C(C)(C)C)cc7)nc6C(C)(C)[C@@H]5CC[C@]43C)[C@@H]2C1 | 65.6 | 39.2 |  |  |  |  |  |
| CC1(C)CC[C@]2(C(=O)NC3CCN(Cc4ccccc4)CC3)CC[C@]3(C)C(=CC[C@@H]4[C@@]5(C)Cc6cn(S(=O)(=O)c7ccc(F)cc7)nc6C(C)(C)[C@@H]5CC[C@]43C)[C@@H]2C1 | 82.9 | 73 |  |  |  |  |  |
| CC1(C)CC[C@]2(C(=O)O)CC[C@]3(C)C(=CC[C@@H]4[C@@]5(C)CC[C@H](O)C(C)(C)[C@@H]5CC[C@]43C)[C@@H]2C1 [OLEANOLIC_ACID] | 82.1 | 11.4 |  |  |  |  |  |
| CC1(C)CC[C@]2(C(=O)NCc3ccccc3)CC[C@]3(C)C(=CC[C@@H]4[C@@]5(C)Cc6cn(S(=O)(=O)c7ccc(Cl)cc7)nc6C(C)(C)[C@@H]5CC[C@]43C)[C@@H]2C1 | 0 | 0 |  |  |  |  |  |
| Cn1cc2c(n1)C(C)(C)[C@@H]1CC[C@]3(C)[C@H](CC=C4[C@@H]5CC(C)(C)CC[C@]5(C(=O)NCc5ccccc5)CC[C@]43C)[C@@]1(C)C2 | 99.7 | 76 |  |  |  |  |  |
| CC1(C)CC[C@]2(C(=O)NCCN3CCCCC3)CC[C@]3(C)C(=CC[C@@H]4[C@@]5(C)Cc6cn(S(=O)(=O)c7ccc(C(C)(C)C)cc7)nc6C(C)(C)[C@@H]5CC[C@]43C)[C@@H]2C1 | 89.8 | 20.8 |  |  |  |  |  |
| Cn1cnc(S(=O)(=O)n2cc3c(n2)C(C)(C)[C@@H]2CC[C@]4(C)[C@H](CC=C5[C@@H]6CC(C)(C)CC[C@]6(C(=O)NCCN6CCCCC6)CC[C@]54C)[C@@]2(C)C3)c1 | 100 | 89.5 |  |  |  |  |  |
| CC1(C)CC[C@]2(C(=O)NCc3ccccc3)CC[C@]3(C)C(=CC[C@@H]4[C@@]5(C)Cc6c[nH]nc6C(C)(C)[C@@H]5CC[C@]43C)[C@@H]2C1 | 100 | 67.7 |  |  |  |  |  |
| CC1(C)CC[C@]2(C(=O)NCCCN3CCOCC3)CC[C@]3(C)C(=CC[C@@H]4[C@@]5(C)Cc6cnoc6C(C)(C)[C@@H]5CC[C@]43C)[C@@H]2C1 | 45.9 | 23.2 |  |  |  |  |  |
| CC1(C)CC[C@]2(C(=O)NCc3ccccc3)CC[C@]3(C)C(=CC[C@@H]4[C@@]5(C)Cc6cnoc6C(C)(C)[C@@H]5CC[C@]43C)[C@@H]2C1 | 69.3 | 27.3 |  |  |  |  |  |
| CC1(C)CC[C@]2(C(=O)NC3CCN(Cc4ccccc4)CC3)CC[C@]3(C)C(=CC[C@@H]4[C@@]5(C)Cc6cn(S(=O)(=O)c7ccc(C(F)(F)F)cc7)nc6C(C)(C)[C@@H]5CC[C@]43C)[C@@H]2C1 | 82.1 | 83.6 |  |  |  |  |  |
| CC1(C)CC[C@]2(C(=O)NCCN3CCCCC3)CC[C@]3(C)C(=CC[C@@H]4[C@@]5(C)Cc6cn(S(=O)(=O)c7ccc(Br)cc7)nc6C(C)(C)[C@@H]5CC[C@]43C)[C@@H]2C1 | 100 | 100 | 70.8 | 78 | 0 | 67.2 | 0 |
| Cc1cccc(S(=O)(=O)n2cc3c(n2)C(C)(C)[C@@H]2CC[C@]4(C)[C@H](CC=C5[C@@H]6CC(C)(C)CC[C@]6(C(=O)NCCN6CCCCC6)CC[C@]54C)[C@@]2(C)C3)c1 | 100 | 33.6 |  |  |  |  |  |

| Structure (SMILES) | inhibition at 20 µM [1] [%] | inhibition at 2 µM [2] [%] | cytotoxicity at 24 h, 20 µM [3] [%] | IC50 [4] [nM] | cytotoxicity at 24 h, 5 µM [5] [%] | cytotoxicity at 24 h, 10 µM [6] [%] | cytotoxicity at 24 h, 2 µM [7] [%] |
| --- | --- | --- | --- | --- | --- | --- | --- |
| COc1ccc(S(=O)(=O)n2cc3c(n2)C(C)(C)[C@@H]2CC[C@]4(C)[C@H](CC=C5[C@@H]6CC(C)(C)CC[C@]6(C(=O)NCCN6CCCCC6)CC[C@]54C)[C@@]2(C)C3)cc1 | 100 | 100 | 72.9 | 88 | 0 | 67.5 | 0 |
| CC1(C)CC[C@]2(C(=O)NCCCN3CCOCC3)CC[C@]3(C)C(=CC[C@@H]4[C@@]5(C)Cc6cn(S(=O)(=O)c7ccc(OC(F)(F)F)cc7)nc6C(C)(C)[C@@H]5CC[C@]43C)[C@@H]2C1 | 86.3 | 31.8 |  |  |  |  |  |
| CC1(C)CC[C@]2(C(=O)NCCCN3CCOCC3)CC[C@]3(C)C(=CC[C@@H]4[C@@]5(C)Cc6cn(S(=O)(=O)c7ccc(F)cc7)nc6C(C)(C)[C@@H]5CC[C@]43C)[C@@H]2C1 | 97.7 | 56.1 |  |  |  |  |  |
| CC1(C)CC[C@]2(C(=O)NCCCN3CCOCC3)CC[C@]3(C)C(=CC[C@@H]4[C@@]5(C)Cc6c[nH]nc6C(C)(C)[C@@H]5CC[C@]43C)[C@@H]2C1 | 100 | 49.8 |  |  |  |  |  |
| CC1(C)CC[C@]2(C(=O)NC3CCN(Cc4ccccc4)CC3)CC[C@]3(C)C(=CC[C@@H]4[C@@]5(C)Cc6cn(S(=O)(=O)c7ccc(Br)cc7)nc6C(C)(C)[C@@H]5CC[C@]43C)[C@@H]2C1 | 19.6 | 20.3 |  |  |  |  |  |
| CC1(C)CC[C@]2(C(=O)NC3CCN(Cc4ccccc4)CC3)CC[C@]3(C)C(=CC[C@@H]4[C@@]5(C)Cc6cn(S(=O)(=O)c7ccc(Cl)cc7)nc6C(C)(C)[C@@H]5CC[C@]43C)[C@@H]2C1 | 41.3 | 18.2 |  |  |  |  |  |
| CC1(C)CC[C@]2(C(=O)NC3CCN(Cc4ccccc4)CC3)CC[C@]3(C)C(=CC[C@@H]4[C@@]5(C)Cc6cnoc6C(C)(C)[C@@H]5CC[C@]43C)[C@@H]2C1 | 99.6 | 17.6 |  |  |  |  |  |
| CC1(C)CC[C@]2(C(=O)NCCN3CCCCC3)CC[C@]3(C)C(=CC[C@@H]4[C@@]5(C)Cc6cnoc6C(C)(C)[C@@H]5CC[C@]43C)[C@@H]2C1 | 100 | 78.5 |  |  |  |  |  |
| COc1ccc(S(=O)(=O)n2cc3c(n2)C(C)(C)[C@@H]2CC[C@]4(C)[C@H](CC=C5[C@@H]6CC(C)(C)CC[C@]6(C(=O)NCCCN6CCOCC6)CC[C@]54C)[C@@]2(C)C3)cc1OC | 50.9 | 34.4 |  |  |  |  |  |
| CC1(C)CC[C@]2(C(=O)NCCCN3CCOCC3)CC[C@]3(C)C(=CC[C@@H]4[C@@]5(C)Cc6cn(S(=O)(=O)c7ccc(C(C)(C)C)cc7)nc6C(C)(C)[C@@H]5CC[C@]43C)[C@@H]2C1 | 97.7 | 56.1 |  |  |  |  |  |
| Cn1cnc(S(=O)(=O)n2cc3c(n2)C(C)(C)[C@H]2CC[C@@]4(C)[C@@H](CC=C5[C@H]6CC(C)(C)CC[C@@]6(C(=O)NC6CCN(Cc7ccccc7)CC6)CC[C@@]54C)[C@]2(C)C3)c1 | 100 | 80.7 |  |  |  |  |  |
| CC1(C)CC[C@]2(C(=O)O)CC[C@]3(C)C(=CC[C@@H]4[C@@]5(C)Cc6cnoc6C(C)(C)[C@@H]5CC[C@]43C)[C@@H]2C1 | 100 | 27.4 |  |  |  |  |  |
| CC1(C)CC[C@]2(C(=O)O)CC[C@]3(C)C(=CC[C@@H]4[C@@]5(C)Cc6cn[nH]c6C(C)(C)[C@@H]5CC[C@]43C)[C@@H]2C1 | 99 | 32.1 |  |  |  |  |  |
| CC1(C)CC[C@]2(C(=O)NC3CCN(Cc4ccccc4)CC3)CC[C@]3(C)C(=CC[C@@H]4[C@@]5(C)Cc6c[nH]nc6C(C)(C)[C@@H]5CC[C@]43C)[C@@H]2C1 | 100 | 88.6 |  |  |  |  |  |
| Cc1noc(C)c1S(=O)(=O)n1cc2c(n1)C(C)(C)[C@@H]1CC[C@]3(C)[C@H](CC=C4[C@@H]5CC(C)(C)CC[C@]5(C(=O)NCCCN5CCOCC5)CC[C@]43C)[C@@]1(C)C2 | 100 | 75.2 |  |  |  |  |  |
| CC1(C)CC[C@]2(C(=O)NC3CCN(Cc4ccccc4)CC3)CC[C@]3(C)C(=CC[C@@H]4[C@@]5(C)Cc6cn(S(=O)(=O)c7ccc(OC(F)(F)F)cc7)nc6C(C)(C)[C@@H]5CC[C@]43C)[C@@H]2C1 | 71.9 | 2.2 |  |  |  |  |  |
| Cc1noc(C)c1S(=O)(=O)n1cc2c(n1)C(C)(C)[C@@H]1CC[C@]3(C)[C@H](CC=C4[C@@H]5CC(C)(C)CC[C@]5(C(=O)NCCN5CCCCC5)CC[C@]43C)[C@@]1(C)C2 | 100 | 22.3 | 72 |  | 0 | 70.7 | 0 |
